Measured values published in ChEMBL document CHEMBL5620394, “Synthesis of new antiproliferative 1,3,4-substituted-pyrrolo[3,2-c]quinoline derivatives, biological and in silico insights” (Eur J Med Chem, 2023).
Calls of active or inactive are those of the source. No cut-off for these calls is given here.

Tests used:
[1] = test system: NCI-H522; assay: Antiproliferative activity against human NCI-H522 cells assessed as cell growth at 10 uM incubated for 48 hrs by sulforhodamine B assay relative to control; format: functional; settings: read-out: Activity
[2] = test system: MDA-MB-231; assay: Growth inhibition of human MDA-MB-231 cells at 25 uM incubated for 24 hrs by cell counter analysis relative to control; format: functional; settings: read-out: GI
[3] = test system: MDA-MB-231; assay: Growth inhibition of human MDA-MB-231 cells at 50 uM incubated for 72 hrs by cell counter analysis relative to control; format: functional; settings: read-out: GI
[4] = test system: MDA-MB-231; assay: Growth inhibition of human MDA-MB-231 cells at 10 uM incubated for 24 hrs by cell counter analysis relative to control; format: functional; settings: read-out: GI
[5] = test system: K562; assay: Antiproliferative activity against human K562 cells assessed as cell growth at 10 uM incubated for 48 hrs by sulforhodamine B assay relative to control; format: functional; settings: read-out: Activity
[6] = test system: MDA-MB-231; assay: Growth inhibition of human MDA-MB-231 cells at 25 uM incubated for 72 hrs by cell counter analysis relative to control; format: functional; settings: read-out: GI
[7] = test system: MCF7; assay: Induction of apoptosis in human MCF7 cells assessed as increase in ROS production at 5 to 25 uM by H2DCFDA staining based flow cytometric analysis; format: functional, cell-based; settings: dose 5-25 µM
[8] = test system: MCF7; assay: Growth inhibition of human MCF7 cells at 25 uM incubated for 72 hrs by cell counter analysis relative to control; format: functional; settings: read-out: GI
[9] = test system: NCI-H226; assay: Antiproliferative activity against human NCI-H226 cells assessed as cell growth at 10 uM incubated for 48 hrs by sulforhodamine B assay relative to control; format: functional; settings: read-out: Activity
[10] = test system: HOP-62; assay: Antiproliferative activity against human HOP-62 cells assessed as cell growth at 10 uM incubated for 48 hrs by sulforhodamine B assay relative to control; format: functional; settings: read-out: Activity
[11] = test system: MDA-MB-231; assay: Growth inhibition of human MDA-MB-231 cells at 50 uM incubated for 24 hrs by cell counter analysis relative to control; format: functional; settings: read-out: GI
[12] = test system: MDA-MB-468; assay: Antiproliferative activity against human MDA-MB-468 cells assessed as cell growth at 10 uM incubated for 48 hrs by sulforhodamine B assay relative to control; format: functional; settings: read-out: Activity
[13] = test system: SF-295; assay: Antiproliferative activity against human SF-295 cells assessed as cell growth at 10 uM incubated for 48 hrs by sulforhodamine B assay relative to control; format: functional; settings: read-out: Activity
[14] = test system: IGROV-1; assay: Antiproliferative activity against human IGROV-1 cells assessed as cell growth at 10 uM incubated for 48 hrs by sulforhodamine B assay relative to control; format: functional; settings: read-out: Activity
[15] = test system: UACC-257; assay: Antiproliferative activity against human UACC-257 cells assessed as cell growth at 10 uM incubated for 48 hrs by sulforhodamine B assay relative to control; format: functional; settings: read-out: Activity
[16] = test system: MCF7; assay: Induction of cell cycle arrest in human MCF7 cells assessed as increase in accumulation of cells at sub-G1 phase at 10 uM incubated for 72 hrs by propidium iodide staining based flow cytometry analysis; format: functional
[17] = test system: MCF7; assay: Induction of cell cycle arrest in human MCF7 cells assessed as increase in accumulation of cells at G2/M phase at 5 uM incubated for 72 hrs by propidium iodide staining based flow cytometry analysis; format: functional
[18] = test system: MCF7; assay: Growth inhibition of human MCF7 cells at 10 uM incubated for 24 hrs by cell counter analysis relative to control; format: functional; settings: read-out: GI
[19] = test system: MCF7; assay: Induction of cell cycle arrest in human MCF7 cells assessed as increase in accumulation of cells at G2/M phase at 10 to 25 uM incubated for 72 hrs by propidium iodide staining based flow cytometry analysis; format: functional; settings: dose 10-25 µM
[20] = test system: KM12; assay: Antiproliferative activity against human KM12 cells assessed as cell growth at 10 uM incubated for 48 hrs by sulforhodamine B assay relative to control; format: functional; settings: read-out: Activity
[21] = test system: LOX IMVI; assay: Antiproliferative activity against human LOX IMVI cells assessed as cell growth at 10 uM incubated for 48 hrs by sulforhodamine B assay relative to control; format: functional; settings: read-out: Activity
[22] = test system: MCF7; assay: Induction of cell cycle arrest in human MCF7 cells assessed as increase in accumulation of cells at sub-G1 phase at 5 uM incubated for 72 hrs by propidium iodide staining based flow cytometry analysis; format: functional
[23] = test system: T47D; assay: Antiproliferative activity against human T47D cells assessed as cell growth at 10 uM incubated for 48 hrs by sulforhodamine B assay relative to control; format: functional; settings: read-out: Activity
[24] = test system: SK-OV-3; assay: Antiproliferative activity against human SK-OV-3 cells assessed as cell growth at 10 uM incubated for 48 hrs by sulforhodamine B assay relative to control; format: functional; settings: read-out: Activity
[25] = test system: MOLT-4; assay: Antiproliferative activity against human MOLT-4 cells assessed as cell growth at 10 uM incubated for 48 hrs by sulforhodamine B assay relative to control; format: functional; settings: read-out: Activity
[26] = test system: MCF7; assay: Growth inhibition of human MCF7 cells at 50 uM incubated for 72 hrs by cell counter analysis relative to control; format: functional; settings: read-out: GI

## CC(=O)c1c(C)[nH]c2c1c(-c1ccc3c(c1)OCO3)nc1ccccc12
[1]
  growth at 10 µM: 101%
[2]
  inhibition of growth at 25 µM: 48%
[3]
  inhibition of growth at 50 µM: 74%
[4]
  inhibition of growth at 10 µM: 37%
[5]
  growth at 10 µM: 76.8%
[6]
  inhibition of growth at 25 µM: 35%
[7]
  Activity: Active
[8]
  inhibition of growth at 25 µM: 41%
[9]
  growth at 10 µM: 65.6%
[10]
  growth at 10 µM: 67.5%
[11]
  inhibition of growth at 50 µM: 60%
[12]
  growth at 10 µM: 59.5%
[13]
  growth at 10 µM: 91.1%
[14]
  growth at 10 µM: 60.1%
[15]
  growth at 10 µM: 73.9%
[16]
  Activity: Active
[17]
  Activity: inactive
[18]
  inhibition of growth at 10 µM: 32%
[19]
  Activity: Active
[20]
  growth at 10 µM: 74.6%
[21]
  growth at 10 µM: 86.5%
[22]
  Activity: Active
[23]
  growth at 10 µM: 70.3%
[24]
  growth at 10 µM: 88.8%
[25]
  growth at 10 µM: 107%
[26]
  inhibition of growth at 50 µM: 70%
